Experimental data reported in patent US20120053053A1, “PYRIMIDINE DERIVATIVES AND THEIR USE AS HERBICIDES” (SYNGENTA CROP PROTECTION, LLC, priority 2009, published 2012).

How the values were obtained:
Type in all cases: in vivo
[1] = system: Amaranthus retoflexus (AMARE); assay: Post-emergence biological efficacy (percentage damage); conditions: Amaranthus retroflexus, 312 h, evaluated after 13 days, 100=total damage, 0=no damage; for pest or weed control at 1000 g/ha: dose 1,000 g/ha
Method: (§1) Seeds of Alopecurus myosuroides (ALOMY), Setaria faberi (SETFA), Echinochloa crus-galli (ECHCG), Solanum nigrum (SOLNI), Amaranthus retoflexus (AMARE) and Ipomea hederaceae (IPOHE) were sown in standard soil in pots. After cultivation for 8 days under controlled conditions in a glasshouse (at 24/16° C., day/night; 14 hours light; 65% humidity), the plants were sprayed with an aqueous spray solution derived from the formulation of the technical active ingredient in acetone/water (50:50) solution containing 0.5% Tween 20 (polyoxyethylene sorbitan monolaurate, CAS RN 9005-64-5) to give a final dose of 250 or 1000 g/ha of test compound. The test plants were then grown on under controlled conditions in a glasshouse (at 24/16° C., day/night; 14 hours light; 65% humidity) and watered twice daily. After 13 days the test was evaluated (100=total damage to plant; 0=no damage to plant).

[2] = system: Alopecurus myosuroides (ALOMY); assay: as above; conditions: Alopecurus myosuroides, 312 h, evaluated after 13 days, 100=total damage, 0=no damage; for pest or weed control at 1000 g/ha: dose 1,000 g/ha
Method: as §1

[3] = system: Setaria faberi (SETFA); assay: as above; conditions: Setaria faberi, 312 h, evaluated after 13 days, 100=total damage, 0=no damage; for pest or weed control at 1000 g/ha: dose 1,000 g/ha
Method: as §1

[4] = system: Echinochloa crus-galli (ECHCG); assay: as above; conditions: Echinochloa crus-galli, 312 h, evaluated after 13 days, 100=total damage, 0=no damage; for pest or weed control at 1000 g/ha: dose 1,000 g/ha
Method: as §1

[5] = system: Ipomea hederaceae (IPOHE); assay: as above; conditions: Ipomoea hederacea, 312 h, evaluated after 13 days, 100=total damage, 0=no damage; for pest or weed control at 1000 g/ha: dose 1,000 g/ha
Method: as §1

[6] = system: Solanum nigrum (SOLNI); assay: as above; conditions: Solanum nigrum, 312 h, evaluated after 13 days, 100=total damage, 0=no damage; for pest or weed control at 1000 g/ha: dose 1,000 g/ha
Method: as §1

[7] = system: Amaranthus retoflexus (AMARE); assay: Pre-emergence biological efficacy (percentage damage); conditions: Amaranthus retroflexus, 312 h, evaluated after 13 days, 100=total damage, 0=no damage; for pest or weed control at 1000 g/ha: dose 1,000 g/ha
Method: (§2) Seeds of Alopecurus myosuroides (ALOMY), Setaria faberi (SETFA), Echinochloa crus-galli (ECHCG), Solanum nigrum (SOLNI), Amaranthus retoflexus (AMARE) and Ipomea hederaceae (IPOHE) were sown in standard soil in pots. After cultivation for one day under controlled conditions in a glasshouse (at 24/16° C., day/night; 14 hours light; 65% humidity), the plants were sprayed with an aqueous spray solution derived from the formulation of the technical active ingredient in acetone/water (50:50) solution containing 0.5% Tween 20 (polyoxyethylene sorbitan monolaurate, CAS RN 9005-64-5) to give a final dose of 250 or 1000 g/ha of test compound. The test plants were then grown under controlled conditions in the glasshouse (at 24/16° C., day/night; 14 hours light; 65% humidity) and watered twice daily. After 13 days the test was evaluated (100=total damage to plant; 0=no damage to plant).

[8] = system: Alopecurus myosuroides (ALOMY); assay: as above; conditions: Alopecurus myosuroides, 312 h, evaluated after 13 days, 100=total damage, 0=no damage; for pest or weed control at 1000 g/ha: dose 1,000 g/ha
Method: as §2

[9] = system: Setaria faberi (SETFA); assay: as above; conditions: Setaria faberi, 312 h, evaluated after 13 days, 100=total damage, 0=no damage; for pest or weed control at 1000 g/ha: dose 1,000 g/ha
Method: as §2

[10] = system: Echinochloa crus-galli (ECHCG); assay: as above; conditions: Echinochloa crus-galli, 312 h, evaluated after 13 days, 100=total damage, 0=no damage; for pest or weed control at 1000 g/ha: dose 1,000 g/ha
Method: as §2

[11] = system: Ipomea hederaceae (IPOHE); assay: as above; conditions: Ipomoea hederacea, 312 h, evaluated after 13 days, 100=total damage, 0=no damage; for pest or weed control at 1000 g/ha: dose 1,000 g/ha
Method: as §2

[12] = system: Solanum nigrum (SOLNI); assay: as above; conditions: Solanum nigrum, 312 h, evaluated after 13 days, 100=total damage, 0=no damage; for pest or weed control at 1000 g/ha: dose 1,000 g/ha
Method: as §2

Row | SMILES | pest or weed control at 1000 g/ha [1] | pest or weed control at 1000 g/ha [2] | pest or weed control at 1000 g/ha [3] | pest or weed control at 1000 g/ha [4] | pest or weed control at 1000 g/ha [5] | pest or weed control at 1000 g/ha [6] | pest or weed control at 1000 g/ha [7] | pest or weed control at 1000 g/ha [8] | pest or weed control at 1000 g/ha [9] | pest or weed control at 1000 g/ha [10] | pest or weed control at 1000 g/ha [11] | pest or weed control at 1000 g/ha [12] | other results
1 | C=Cc1c(N)nc(-c2cc(F)cc(Cl)c2)nc1C(=O)OC [Compound 61-61, 4-Amino-2-(3-chloro-5-fluorophenyl)-5-ethenyl-6-methoxycarbonyl-pyrimidine] | 10% | 0% | 0% | 0% | 0% | 20% | 0% | 0% | 0% | 0% | 0% | 30% | 
2 | COC(=O)c1nc(-c2ccc(Cl)cc2)nc(N)c1C [Compound 5-41] | 100% | 30% | 30% | 20% | 40% | 70% | 100% | 20% | 30% | 30% | 10% | 30% | 
3 | C=Cc1c(N)nc(-c2ccc(Cl)c(N(C)C)c2F)nc1C(=O)OCC(C)C [Compound 33-326, 4-Amino-2-(4-chloro-3-dimethylamino-2-fluorophenyl)-5-ethenyl-6-(2-methylpropoxy) carbonyl-pyrimidine] | 100% | 20% | 40% | 80% | 50% | 90% | 60% | 20% | 20% | 40% | 10% | 60% | 
4 | COC(=O)c1nc(C2CC2)nc(N)c1C#CC(C)(C)C [Compound 2-77, 4-Amino-2-cyclopropyl-5-(3,3-dimethylbut-1-ynyl)-6-methoxycarbonyl-pyrimidine] |  |  |  |  |  |  |  |  |  |  |  |  | pest or weed control at 250 g/ha ([1]; dose 250 g/ha): 30%; pest or weed control at 250 g/ha ([2]; dose 250 g/ha): 0%; pest or weed control at 250 g/ha ([3]; dose 250 g/ha): 0%; pest or weed control at 250 g/ha ([4]; dose 250 g/ha): 0%; pest or weed control at 250 g/ha ([5]; dose 250 g/ha): 70%; pest or weed control at 250 g/ha ([6]; dose 250 g/ha): 40%; pest or weed control at 250 g/ha ([7]; dose 250 g/ha): 0%; pest or weed control at 250 g/ha ([8]; dose 250 g/ha): 0%; pest or weed control at 250 g/ha ([9]; dose 250 g/ha): 0%; pest or weed control at 250 g/ha ([10]; dose 250 g/ha): 0%; pest or weed control at 250 g/ha ([11]; dose 250 g/ha): 0%; pest or weed control at 250 g/ha ([12]; dose 250 g/ha): 0%
5 | C=Cc1c(N)nc(-c2ccc(SC)cc2)nc1C(=O)OC [Compound 72-61, 4-Amino-5-ethenyl-6-methoxycarbonyl-2-(4-methylthiophenyl)-pyrimidine] | 10% | 10% | 0% | 0% | 50% | 60% | 60% | 0% | 0% | 0% | 70% | 50% | 
6 | COC(=O)c1nc(-c2ccc(C)c(OC)c2F)nc(N)c1C [Compound 60-41] | 100% | 40% | 10% | 30% | 40% | 100% | 0% | 20% | 10% | 10% | 10% | 40% | 
